Results as given in patent US10111901B2, “Beta-glucan in combination with anti-cancer agents affecting the tumor microenvironment” (Biothera, Inc., priority 2014, dated 2018).

What was measured:
IL-4 = IL-4 analysis of co-culture supernatants; type: cell-based, human; conditions: co-cultures of β-glucan-treated M2 macrophages and CD4 T cells
Procedure: CD14^+ monocytes from human whole blood were enriched using Ficoll gradient and magnetic bead separation. Enriched monocytes (5×10^5 cells per mL) were then cultured in either M1-polarizing (XVivo 10 media (Lonza Group) supplemented with 5% autologous serum and 100 ng/mL recombinant human granulocyte macrophage colony-stimulating factor (rhGM-CSF) (R&D Systems) or M2-polarizing (XVivo 10 media supplemented with 10% autologous serum and 50 ng/mL recombinant human macrophage colony-stimulating factor (rhM-CSF) (R&D Systems) conditions for 6 days. In experiments performed to evaluate the effect of β-glucan, whole blood was first incubated with vehicle (sodium citrate buffer) or 25 μg/mL soluble β-glucan for 2 hours at 37° C. and then the monocytes were isolated and differentiated. Morphology was checked before macrophages were harvested for phenotypic analysis. […] T cell proliferation was measured at the end of the experiment (day 9-day 11) by flow cytometry, and results are graphically shown as CFSE-dilution peaks. […] Quantitative results were reported as the Division Index (the average number of cell divisions a population underwent) calculated for each of the triplicate wells in each of the culture conditions. […]
Modulation of IFN-γ and IL-4 production of vehicle- and β-glucan-treated M2 macrophages was then evaluated. […]

CD4 T cells = assay: Mac-CD4 T cell proliferation assay (CFSE dilution, Division Index); type: cell-based, human
Procedure: (§1) CD14^+ monocytes from human whole blood were enriched using Ficoll gradient and magnetic bead separation. Enriched monocytes (5×10^5 cells per mL) were then cultured in either M1-polarizing (XVivo 10 media (Lonza Group) supplemented with 5% autologous serum and 100 ng/mL recombinant human granulocyte macrophage colony-stimulating factor (rhGM-CSF) (R&D Systems) or M2-polarizing (XVivo 10 media supplemented with 10% autologous serum and 50 ng/mL recombinant human macrophage colony-stimulating factor (rhM-CSF) (R&D Systems) conditions for 6 days. In experiments performed to evaluate the effect of β-glucan, whole blood was first incubated with vehicle (sodium citrate buffer) or 25 μg/mL soluble β-glucan for 2 hours at 37° C. and then the monocytes were isolated and differentiated. Morphology was checked before macrophages were harvested for phenotypic analysis. Culture medium of the day 6 macrophage culture (MCM) was collected, spun down to remove contaminated cell pellet and then frozen down for subsequent cytokine analysis by ELISA or used to setup a co-culture with CD3 & CD28-stimulated CD4 T cells (MCM-CD4 T) for evaluation of either surface markers or CD4 T cell proliferation. The macrophages were used to setup a co-culture with CD3 & CD28- or CD3 only-stimulated CD4 T cells (Mac-CD4 T) on day 6 for evaluation of either surface marker modulation or effect on CD4 T cell proliferation. For Mac-CD4 T cell proliferation study, M1 or M2 macrophages were cultured with CD3 & CD28- or CD3 only-stimulated, CFSE-labeled, autologous CD4 T cells at a 1:10 ratio. T cell proliferation was measured at the end of the experiment (day 9-day 11) by flow cytometry, and results are graphically shown as CFSE-dilution peaks. The assessment of CD3-only stimulated T cells was always done on day 11. Quantitative results were reported as the Division Index (the average number of cell divisions a population underwent) calculated for each of the triplicate wells in each of the culture conditions. Culture supernatants of Mac-CD4 T co-cultures were collected for subsequent cytokine analysis.
Next, vehicle- or β-glucan-treated M1 or M2 macrophages were cultured with CD3 and CD28-stimulated, carboxyfluorescein diacetate succinimidyl ester (CFSE)-labeled autologous CD4 T cells and T cell proliferation was measured at the end of the experiment by flow cytometry and results quantitatively reported as division index (the average number of cell divisions a population has undergone).
Next, the ability of M1/M2 macrophages derived from soluble β-glucan-treated monocytes from high binders and low binders to enhance CD3 & CD28-stimulated CD4 T cell proliferation was evaluated.
Evaluation of cell-to-cell contact was carried out as follows: vehicle- and β-glucan-treated M2 macrophages and CD3 & CD28− versus CD3 only-stimulated CD4 T cell co-cultures were utilized for measuring CD4 T cell proliferation and IFN-γ production.

CD4 and CD8 T cells = assay: Allogeneic mixed lymphocyte reaction (allo-MLR) with mMoDC; type: cell-based, human
MC38 tumor cells = assay: MC38 tumor model, tumor-free survival; type: in vivo; conditions: C57BL/6 mice, MC38 s.c.; biweekly from day 3; 1.2 mg/mouse IMPRIME PGG, 100 μs/mouse anti-PDL-1; survivors/group size
Procedure: In another animal study, mice were injected with MC38 tumor cells and randomized into treatment groups. 8 to 12 week-old female C57BL/6 mice were injected with 1×10^6 MC38 tumor cells, a colon adenocarcinoma that expresses low levels of PD-L1, in a volume of 0.1 ml injected subcutaneously in the flank. Mice were dosed biweekly starting on day 3 with the following agents: • 0.2 ml/mouse vehicle • 1.2 mg/mouse IMPRIME PGG (Biothera, Inc.) • 100 μs/mouse anti-PDL-1 Clone: 10F.9G2 BioXcell Catalog#: BE0101
Blood samples were collected 1 hour prior to dose 1, 2 hours after dose 3, the endpoint and 2 hours after the last dose (day 20). Treatment groups included vehicle (PBS control), IMPRIME PGG alone, anti-PD-L1 antibody alone and anti-PD-L1+IMPRIME PGG. Tumors were randomized to treatment groups once sizes reached a group mean of 150 mm^3.

M2 macrophages = assay: Flow cytometry of M1/M2-specific markers on M2 macrophages derived from vehicle- or β-glucan-treated whole blood; type: cell-based, human
Procedure: as §1
M1 and M2 macrophages from vehicle- or β-glucan-treated whole blood were prepared as described above. […] In addition, surface expression of CD86 was enhanced as well as both protein and mRNA levels of PD-L1 (FIG. 2B).
Expression of a panel of markers was evaluated by flow cytometry for vehicle- and β-glucan-treated, high binder-derived M1 and M2 macrophages (CD163 was evaluated twice).
CD163 and CD86 were evaluated by flow cytometry for vehicle- and β-glucan-treated, low binder-derived M1 and M2 macrophages.
Phenotypic and functional evaluation of β-glucan-treated M2a and β-glucan-treated M2 macrophages in the presence of immunosuppressive cytokines was carried out. M2 or M2a macrophages were prepared as described above. On day 3, tumor-conditioned medium (TCM) was added M2 macrophage cultures to account for 70% of the volume of the culture and then evaluated for CD163 expression and functional activity on day 6. […] M2a macrophages were cultured in IL-4 as described above.
The β-glucan-treated M2a macrophages cultured in IL-4 and M2 macrophages cultured in TCM were first evaluated for CD163 and CD86 expression. CD163 and CD86 were evaluated by flow cytometry and median MFI was calculated for isotype control staining and surface antigen staining and the results are shown in Table 5.
Monocytes or M2 macrophages were prepared as described above. On day 3, TCM was added to account for 70% of the volume of the culture and then evaluated for PD-L1 expression with TCM and then again when co-cultured with CD4 T cells.

[1] = M2 macrophages cultured in TCM (70% of volume, from day 3), immunosuppressive conditions
[2] = M2 macrophages, high binder, 25 μg/mL

β(1,6)-[poly-(1,3)-D-glucopyranosyl]-poly-β(1,3)-D-glucopyranose [β-glucan]
production of immunosuppressive cytokine IL-4 (IL-4): no change | CD4 T cell proliferation (CD4 T cells; M2 macrophages cultured in TCM and M2a macrophages cultured in IL-4, vs vehicle-treated): maintained the ability to enhance CD4 T cell proliferation | CD3 & CD28-stimulated CD4 T cell proliferation (CD4 T cells; β-glucan-treated M1 macrophages, high binders or low binders): no differences | CD3 & CD28-stimulated CD4 T cell proliferation (CD4 T cells; β-glucan-treated M2 macrophages vs vehicle-treated, high binders): significantly higher ability to enhance | CD4 T cell proliferation (CD4 T cells; β-glucan-treated M2 macrophages with CD3 and CD28-stimulated CD4 T cells, FIG. 2C): enhance CD4 T cell proliferation | CD4 T cell proliferation (CD4 T cells; β-glucan-treated M2 macrophages, absence of exogenous CD28 antibody (CD3 only)): significantly higher ability to enhance | CD3 & CD28-stimulated CD4 T cell proliferation (CD4 T cells; β-glucan-treated M2 macrophages, low binders): no enhanced proliferation | immunogenicity in allo-MLR (CD4 and CD8 T cell expansion) (CD4 and CD8 T cells; β-glucan-treated mMoDC from high binders): increased immunogenicity | IFN-γ production (CD4 and CD8 T cells; β-glucan-treated mMoDC from high binders vs low binders and vehicle-treated mMoDCs): able to modulate IFN-γ production | Tumor-free Survivors (day 29) (MC38 tumor cells): 2/18 | CD86 median MFI (M2 macrophages; [1]): 2697 | CD163 median MFI (M2 macrophages; [1]): 1112 | CD86 median MFI (M2 macrophages; [2]): 2953 | CD163 (1) median MFI (M2 macrophages; [2]): 759 | CD163 (2) median MFI (M2 macrophages; [2]): 1153 | CD206 median MFI (M2 macrophages; [2]): 1056 | CD209 median MFI (M2 macrophages; [2]): 801 | CD274 (PD-L1) median MFI (M2 macrophages; [2]): 4427 | HLA-DR median MFI (M2 macrophages; [2]): 1007 | CD86 median MFI (M2 macrophages; M2 macrophages, low binder): 2284 | CD163 median MFI (M2 macrophages; M2 macrophages, low binder): 3315 | phenotypic markers on monocyte-derived macrophages (M2 macrophages; low binders, M1/M2 polarizing conditions (data not shown)): did not modulate | surface expression of CD86 (M2 macrophages; β-glucan-treated M2 macrophages): enhanced | surface expression of PD-L1 (M2 macrophages; β-glucan-treated M2 macrophages cultured in TCM): higher surface expression | HLA-DR expression (M2 macrophages; β-glucan-treated M2 macrophages cultured in TCM (data not shown)): higher | PD-L1 expression (M2 macrophages; β-glucan-treated M2 macrophages in TCM co-cultured with CD4 T cells): increased expression | mean fluorescence intensity (MFI) of CD163 (M2 macrophages; β-glucan-treated M2 macrophages, FIG. 2A): downmodulated | protein and mRNA levels of PD-L1 (M2 macrophages; β-glucan-treated M2 macrophages, FIG. 2B): enhanced
